From the NIST ThermoML archive (doi:10.1016/j.jct.2007.07.002)

Details: Gas, double Helmholtz acoustic resonator

F[Si](F)(F)F [silicon tetrafluoride]
Details | kinematic viscosity [m2/s] | speed of sound [m/s]
215 K, 198.15 kPa | 1.06e-06 | 136.99
215 K, 283.66 kPa | 7.32e-07 | 135.34
215 K, 378.5 kPa | 5.24e-07 | 133.42
215 K, 461.43 kPa | 4.37e-07 | 131.7
215 K, 551.52 kPa | 3.6e-07 | 129.72
215 K, 649.39 kPa | 3.03e-07 | 127.46
215 K, 746.64 kPa | 2.59e-07 | 125.06
230 K, 271.49 kPa | 8.88e-07 | 141.02
230 K, 424.62 kPa | 5.63e-07 | 138.59
230 K, 578.31 kPa | 3.98e-07 | 136.01
230 K, 742.99 kPa | 2.84e-07 | 133.07
230 K, 897.83 kPa | 2.5e-07 | 130.19
230 K, 1088.3 kPa | 2.9e-07 | 126.35
230 K, 1251 kPa | 1.76e-07 | 122.68
245 K, 248.32 kPa | 1.09e-06 | 146.4
245 K, 393.67 kPa | 6.6e-07 | 144.55
245 K, 542.46 kPa | 4.92e-07 | 142.59
245 K, 703.75 kPa | 3.7e-07 | 140.39
245 K, 873.41 kPa | 2.95e-07 | 138
245 K, 1034.5 kPa | 2.46e-07 | 135.63
245 K, 1220 kPa | 2.08e-07 | 132.78
245 K, 1434.3 kPa | 1.74e-07 | 129.26
245 K, 1599.8 kPa | 1.55e-07 | 126.37
245 K, 1777.8 kPa | 1.4e-07 | 123.04
245 K, 1958.5 kPa | 1.25e-07 | 119.34
260 K, 206.14 kPa | 1.34e-06 | 151.46
260 K, 410.06 kPa | 7.49e-07 | 149.46
260 K, 617.98 kPa | 4.82e-07 | 147.22
260 K, 830.76 kPa | 3.54e-07 | 144.88
260 K, 1047.1 kPa | 2.74e-07 | 142.41
260 K, 1252 kPa | 2.3e-07 | 140.01
260 K, 1498.2 kPa | 1.91e-07 | 137.01
260 K, 1794.3 kPa | 1.58e-07 | 133.23
260 K, 2026.6 kPa | 1.39e-07 | 130.08
260 K, 2282.2 kPa | 1.25e-07 | 126.45
260 K, 2541.7 kPa | 1.1e-07 | 122.51
274.58 K, 524.86 kPa | 6.36e-07 | 153.14
274.58 K, 642.96 kPa | 5.09e-07 | 152.03
274.58 K, 744.26 kPa | 4.24e-07 | 151.15
274.58 K, 845.26 kPa | 3.88e-07 | 150.26
274.58 K, 947.16 kPa | 3.48e-07 | 149.34
274.58 K, 1048.3 kPa | 3.11e-07 | 148.41
274.58 K, 1150.3 kPa | 2.86e-07 | 147.47
274.58 K, 1252.2 kPa | 2.59e-07 | 146.53
274.58 K, 1353.8 kPa | 2.42e-07 | 145.57
274.58 K, 1454.6 kPa | 2.28e-07 | 144.62
274.58 K, 1556 kPa | 2.09e-07 | 143.64
274.58 K, 1657.9 kPa | 2.01e-07 | 142.67
274.58 K, 1764.4 kPa | 1.82e-07 | 141.62
274.58 K, 1878.1 kPa | 1.7e-07 | 140.5
274.58 K, 1998.5 kPa | 1.64e-07 | 139.34
274.58 K, 2141.9 kPa | 1.52e-07 | 137.92
274.58 K, 2244.2 kPa | 1.42e-07 | 136.85
274.58 K, 2354.1 kPa | 1.36e-07 | 135.74
274.58 K, 2474 kPa | 1.31e-07 | 134.5
274.58 K, 2776.6 kPa | 1.15e-07 | 131.33
274.58 K, 2951.3 kPa | 1.08e-07 | 129.47
300 K, 386.04 kPa | 1.14e-06 | 161.89
300 K, 581.57 kPa | 7.42e-07 | 160.87
300 K, 775.29 kPa | 5.2e-07 | 159.49
300 K, 975.51 kPa | 4.04e-07 | 158.17
300 K, 1173.9 kPa | 3.25e-07 | 156.88
300 K, 1443.4 kPa | 2.69e-07 | 155.17
300 K, 1648.7 kPa | 2.37e-07 | 153.86
300 K, 1872.1 kPa | 2.11e-07 | 152.44
300 K, 2157.9 kPa | 1.71e-07 | 150.6
300 K, 2526.1 kPa | 1.53e-07 | 148.3
324.96 K, 582.54 kPa | 8.84e-07 | 168.12
324.96 K, 731.36 kPa | 6e-07 | 167.21
324.96 K, 1070.8 kPa | 4.22e-07 | 165.71
324.96 K, 1257.4 kPa | 3.6e-07 | 164.87
324.96 K, 1487.6 kPa | 3.1e-07 | 163.84
324.96 K, 1769 kPa | 2.59e-07 | 162.6
324.96 K, 1936.2 kPa | 2.42e-07 | 161.88
324.96 K, 2114.4 kPa | 2.11e-07 | 161.1
324.96 K, 2322.2 kPa | 1.99e-07 | 160.23
324.96 K, 2541 kPa | 1.84e-07 | 159.34
